Data on one compound can be found in patent US20230313199A1, “TARGET FOR MODULATING BODY MASS” (Massachusetts Institute of Technology, priority 2020, published 2023).

SMILES strings stand for the structures.

Test [1] has as its system THP-1 cells. Put plainly: Cellular energy charge (ATP/ADP ratio). It counts as cell-based, human. To be noted: heme 1 hour, reduced to similar levels as in 7CKO cells. As for the experimental part:
Measurement of cellular energy charge (ATP/ADP ratio). ATP/ADP ratio was measured using ADP Assay Kit (Sigma Catalog No. MAK133-1KT) following manufacturer's protocol. For THP-1 cells, 24 hours before the experiment, cells were resuspended in fresh complete RPMI media. For heme treatment, 1 mL of treated cell suspension was incubated for 1 hour at 37° C. cell culture incubator, then centrifuged and resuspended in 1 mL of fresh warm complete RPMI media in order to wash off excess heme, which interferes with the assays. […] per well (approximately 10,000 cells total) was placed in a white 96-well plate, lysed with 90 μL of ATP Buffer, and incubated with gentle shaking at room temperature for 10 min. Relative ATP amount was directly measured using luminescence. Then, 5 μL of ADP Enzyme mix was added to each well and the plate was incubated with light shaking for 3 minutes. Relative amount of ADP+ATP was measured using luminescence. ADP amount was calculated by subtracting the ATP signal from ADP+ATP signal. To get ATP/ADP ratio, ATP signal was divided by the calculated ADP signal. For BMDMs, the assay was performed following the same protocol but using 20,000 cells per well.

Test [2] has as its target T1, MFSD7C interactions with ETC components (CYC1, NDUFA4, COX4i1, ATP5h, ATP5c1) (Mus musculus, UniProt Q91X85).
T1 construct: expressed in transfected cells; host or cells: 293FT cells
Put plainly: Co-IP of HA-tagged MFSD7C with FLAG-tagged ETC components in transfected 293FT cells. It counts as cell-based, murine. To be noted: 10 μM or 40 μM heme for one hour before cell lysis, increasing level. As for the experimental part:
Co-transfection and immunoprecipitation. For co-IP, HA-tagged MFSD7C was co-transfected with FLAG-tagged HMOX1 (Origene Catalog No. MR203944), CYC1, COX4I1, NDUFA4, ATP5h, ATP5c1 into 293FT cells using TransIT®-LT1 Transfection Reagent (Mirus). Thirty-six hours after transfection, the cells were lysed using cold Lysis Buffer containing 20 mM Tris-HCl (pH 7.4), 150 mM NaCl, 0.1% NP-40, 10% glycerol, proteinase inhibitor (Sigma Catalog No. 4693132001), and phosphatase inhibitors (Sigma Catalog No. 4906845001). The clear supernatants from the lysate were incubated with M2-magnetic beads conjugated with anti-FLAG antibody (Sigma Catalog No. M8823) for 2 hours at 4° C. Then the beads were washed twice and eluted by the 3× FLAG peptides (Sigma Catalog No. F4799).
To determine the effect of heme on MFSD7C interactions with ETC components, HMOX1 or SERCA2b, 293FT cells were transiently transfected with HA-tagged murine MFSD7C and FLAG-tagged murine CYC1, NDUFA4, COX4i1, ATP5h, ATP5c1, HMOX1 or SERCA2b. 35 hrs later, co-transfected cells were incubated with DMSO (vehicle) or 10 μM or 40 μM of heme for one hour before lysis. Cell lysates were precipitated with anti-HA antibody, eluted with HA peptide, further precipitated with anti-FLAG antibody, eluted with FLAG peptide, and then subjected to Western blotting with anti-HA and anti-FLAG antibodies. […]

Test [3] concerns the target T2, MFSD7C and SERCA2b (Mus musculus, UniProt Q91X85).
T2 construct: expressed in transfected cells; called 293T
Put plainly: Co-IP of MFSD7C and SERCA2b in transfected 293T cells. It counts as cell-based, murine. To be noted: 293T cells in the presence of MG132, heme for one hour. As for the experimental part: FIGS. 5A-5F show MFSD7C and heme regulate thermogenesis through SERCA2b in THP-1 cells. […] 30 hours later, MG132 was added into half of the cells and the other half was not treated. Another 35 hours later, some cells were treated with 40 μM heme for 1 hour before lysis. Cell lysates were immunoprecipitated with anti-FLAG antibody, and eluted, followed by anti-HA immunoprecipitation and elution. Total cell lysate and elute were subjected to Western blotting and probed with anti-SERCA2b or anti-MFSD7C antibodies. Shown are representative data from one of three experiments. […] 24 hrs later, cells were either not treated or treated with 10 μM MG132 for either 6 or 12 hours. The cells were lysed and subjected to FLAG pull-down and blotted with anti-MFSD7C, anti-SERCA2b and anti-ubiquitin antibodies. Shown are representative data from one of three experiments. […] Parental THP-1 cells were either not treated or treated with heme before lysis. Shown are representative data from one of four experiments. […] Shown are representative data from one of two experiments. […] Cells were washed and treated with 40 μM heme for one hour before flow cytometry. Representative FPT histograms from one of three experiments are shown. […] Shown are representative FPT histograms from one of three experiments. […]

In test [4] the test system is Serca2b^−/− THP-1 cells. Put plainly: Thermogenesis by FPT in Serca2b knockout THP-1 cells. As to conditions: 40 μM heme 1 hour, FPT flow cytometry. It counts as cell-based, human. As for the experimental part:
FIGS. 5A-5F show MFSD7C and heme regulate thermogenesis through SERCA2b in THP-1 cells. […] 30 hours later, MG132 was added into half of the cells and the other half was not treated. Another 35 hours later, some cells were treated with 40 μM heme for 1 hour before lysis. Cell lysates were immunoprecipitated with anti-FLAG antibody, and eluted, followed by anti-HA immunoprecipitation and elution. Total cell lysate and elute were subjected to Western blotting and probed with anti-SERCA2b or anti-MFSD7C antibodies. Shown are representative data from one of three experiments. […] 24 hrs later, cells were either not treated or treated with 10 μM MG132 for either 6 or 12 hours. The cells were lysed and subjected to FLAG pull-down and blotted with anti-MFSD7C, anti-SERCA2b and anti-ubiquitin antibodies. Shown are representative data from one of three experiments. […] Parental THP-1 cells were either not treated or treated with heme before lysis. Shown are representative data from one of four experiments. […] Shown are representative data from one of two experiments. […] Cells were washed and treated with 40 μM heme for one hour before flow cytometry. Representative FPT histograms from one of three experiments are shown. […]
In the second approach, we used fluorescent polymeric thermometer (FPT), which we synthesized in-house (see above). […] Then the fluorescence intensities were determined by a flow cytometer.
(In general: Flow cytometry measures light scatter and fluorescence of single cells or particles in a stream.)

T2 sequence (Q91X85 whole entry): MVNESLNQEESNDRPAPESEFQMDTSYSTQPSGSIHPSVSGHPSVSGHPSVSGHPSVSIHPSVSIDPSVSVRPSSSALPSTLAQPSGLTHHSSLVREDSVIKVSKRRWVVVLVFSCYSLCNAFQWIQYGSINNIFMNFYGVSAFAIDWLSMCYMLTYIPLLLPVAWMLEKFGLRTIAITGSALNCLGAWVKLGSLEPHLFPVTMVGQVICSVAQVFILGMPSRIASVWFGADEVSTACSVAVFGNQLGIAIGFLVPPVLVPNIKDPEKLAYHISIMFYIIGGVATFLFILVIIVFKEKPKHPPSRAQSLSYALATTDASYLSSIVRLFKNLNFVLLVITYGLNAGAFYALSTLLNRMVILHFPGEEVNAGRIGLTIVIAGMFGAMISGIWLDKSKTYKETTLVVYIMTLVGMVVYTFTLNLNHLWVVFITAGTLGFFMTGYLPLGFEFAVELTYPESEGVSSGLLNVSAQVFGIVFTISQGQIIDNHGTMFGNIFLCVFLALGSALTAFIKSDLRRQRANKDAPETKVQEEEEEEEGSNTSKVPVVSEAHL
T1 sequence (Q91X85 whole entry): as above

For the compound `C=CC1=C(C)c2cc3[n-]c(cc4[n-]c(cc5nc(cc1n2)C(C)=C5C=C)c(C)c4CCC(=O)O)c(CCC(=O)O)c3C.[Fe+2]` [heme], the ATP/ADP ratio entry in test [1] is “reduced”. Besides, in test [2], the “ETC components co-precipitated with MFSD7C” value was “less or very little ETC components co-precipitated with MFSD7C”. For the same compound, the “co-IP of SERCA2b with MFSD7C” value in test [3] was “abolished”. In addition, the “thermogenesis following heme treatment” value in test [4] is “significantly diminished”.
